From publication PMC3392449 (Journal of Immunology (Baltimore, Md. : 1950), 2012)

Columns and labels:
Assay type in all cases: cell-based, human
[1] = test system: extract-stimulated PBMC cultures from allergic donors (IL-5 production); test: IL-5 ELISPOT of in vitro expanded PBMC; conditions: donor U00023 (Figure 3), result in words
[2] = test system: extract-stimulated PBMC cultures from allergic donors (IFN-γ production); test: IFN-γ ELISPOT of in vitro expanded PBMC; conditions: donor U00023 (Figure 3), result in words
[3] = test system: extract-stimulated PBMC cultures from allergic donors; test: IL-5 plus IFN-γ ELISPOT of Bla g extract-expanded PBMC; conditions: share of the region in the total Bla g peptide response (total SFC)

GNQNFLTVFDSTSCN [Region 7]
IL-5 response [1]: no IL-5
IFN-γ response [2]: produced IFN-γ
% Total response [3]: 0.2%

PEQIQLLKKAFDAFD [Region 23]
IL-5 response [1]: associated only with IL-5 production
% Total response [3]: 5.1%

FAVATITHAAELQRV [Region 5]
IL-5 response [1]: no IL-5
IFN-γ response [2]: produced IFN-γ
% Total response [3]: 3.5%

ISDFRAAIANYHYDA [Region 13]
% Total response [3]: 8.6%
